Reference: patent US20070155746A1, “NOVEL SUBSTITUTED PYRIDINYLOXY AND PYRIMIDINYLOXY AMIDES USEFUL AS INHIBITORS OF PROTEIN KINASES” (KALYPSYS, INC., priority 2005, published 2007)

How the values were obtained:
Type in all cases: biochemical
[1] = target: T1, human B-Raf protein kinase (Homo sapiens, UniProt P15056); assay: In vitro B-Raf/Mek1 composite kinase assay
T1 construct: GST (N); purchased Upstate Inc. 14-530 (B-Raf); 14-420 (Mek1)
Protocol: In Vitro B-Raf/Mek1 Composite Kinase Assay
2.5 μl of B-Raf kinase buffer (20 mM MOPS [pH 7.2], 25 mM sodium glycerophosphate, 2 mM EGTA [pH 8.0], 1 mM sodium orthovanadate, 1 mM dithiothreitol, 10 mM MgCl2, 0.03% Brij-35, 0.3 mg/ml bovine serum albumin) containing lng of recombinant, N-terminal GST-tagged human B-Raf protein kinase (Δ1-415, Upstate Inc., cat. #14-530) is dispensed to wells of a 1536 multi-well white solid plate. 60 nl of 100× concentration of test compound in DMSO is dispensed to the well by passive pin transfer and incubated for 15 minutes at room temperature (approx. 22° C.). […] The assay plates are sealed and maintained in a humidified environment. After 2 hours, 2.5 μl of PKLight protein kinase assay reagent (Cambrex, cat. #LT07-501) is dispensed. After an additional 5 minute incubation at room temperature, luminescence activity is measured on a Molecular Devices Analyst multi-mode plate reader or other suitable plate reader. Kinase inhibition results in less ATP depletion, and therefore increased luminescence signal. Negative control activity is measured with DMSO lacking any test compound. The positive control is [N-(3-trifluoromethyl-4-chlorophenyl)-N′-(4-(2-methylcarbamoyl-pyridin-4-yl)oxyphenyl)urea], aka Bay 43-9006. Efficacy is measured as a percentage of positive control activity.

VEGFR2 kinase = target: T2, VEGFR2 kinase (Homo sapiens, UniProt P35968); assay: In vitro VEGFR2 kinase assay
T2 construct: purchased Invitrogen Inc PV3660
T2 sequence (P35968 20-1356): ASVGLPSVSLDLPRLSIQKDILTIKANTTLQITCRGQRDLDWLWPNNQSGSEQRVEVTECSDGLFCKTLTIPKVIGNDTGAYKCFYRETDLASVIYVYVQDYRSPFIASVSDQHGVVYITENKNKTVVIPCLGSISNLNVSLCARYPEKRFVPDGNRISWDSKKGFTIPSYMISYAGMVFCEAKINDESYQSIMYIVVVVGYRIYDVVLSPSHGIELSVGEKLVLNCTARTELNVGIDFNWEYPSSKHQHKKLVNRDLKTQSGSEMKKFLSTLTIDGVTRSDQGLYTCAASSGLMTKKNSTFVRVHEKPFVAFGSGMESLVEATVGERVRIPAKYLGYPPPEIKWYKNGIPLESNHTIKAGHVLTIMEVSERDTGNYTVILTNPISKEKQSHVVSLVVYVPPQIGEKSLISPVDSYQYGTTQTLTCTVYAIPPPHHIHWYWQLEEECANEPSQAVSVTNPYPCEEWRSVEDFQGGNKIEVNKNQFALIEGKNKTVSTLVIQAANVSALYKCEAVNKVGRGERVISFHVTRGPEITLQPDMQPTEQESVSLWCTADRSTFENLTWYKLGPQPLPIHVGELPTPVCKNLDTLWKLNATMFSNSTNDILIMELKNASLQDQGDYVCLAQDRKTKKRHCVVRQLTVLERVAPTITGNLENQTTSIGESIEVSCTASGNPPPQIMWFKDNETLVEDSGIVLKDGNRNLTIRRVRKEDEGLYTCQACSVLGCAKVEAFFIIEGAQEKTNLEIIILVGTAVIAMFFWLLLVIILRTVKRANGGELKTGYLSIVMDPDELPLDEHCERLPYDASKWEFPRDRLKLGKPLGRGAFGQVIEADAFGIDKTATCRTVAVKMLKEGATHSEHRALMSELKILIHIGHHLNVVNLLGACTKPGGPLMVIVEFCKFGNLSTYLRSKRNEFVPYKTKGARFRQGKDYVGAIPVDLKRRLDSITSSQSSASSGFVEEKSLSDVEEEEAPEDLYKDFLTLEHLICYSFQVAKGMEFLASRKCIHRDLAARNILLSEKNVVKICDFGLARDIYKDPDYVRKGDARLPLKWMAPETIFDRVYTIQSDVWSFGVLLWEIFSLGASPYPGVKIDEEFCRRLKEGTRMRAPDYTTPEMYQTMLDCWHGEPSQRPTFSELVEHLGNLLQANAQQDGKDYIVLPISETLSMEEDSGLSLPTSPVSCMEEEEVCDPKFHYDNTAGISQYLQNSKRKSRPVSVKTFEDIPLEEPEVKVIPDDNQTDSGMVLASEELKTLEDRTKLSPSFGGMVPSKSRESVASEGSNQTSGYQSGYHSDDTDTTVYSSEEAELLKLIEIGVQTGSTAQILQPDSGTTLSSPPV
Protocol: (§1) In Vitro VEGFR2 and PDGFRP Kinase Assays
(§2) 2.5 μl of ADP Quest assay buffer (DiscoverX Inc., cat. #90-0071) containing 20 ng VEGFR2 kinase (Invitrogen Inc, cat. #PV3660) or 25 ng PDGFRβ kinase (Invitrogen Inc., cat. #P3082) is dispensed to wells of a 1536 multi-well, black solid plate. 60 nl of 100× concentration of test compound in DMSO is dispensed to the well by passive pin transfer and incubated for 10 minutes at room temperature (approx. 22° C.). 2.5 μl of ADP Quest assay buffer containing 0.25 μg of poly Glu:Tyr (4:1) substrate peptide (Upstate Inc., cat. #12-440) and 60 μM ATP is then dispensed and the kinase reaction allowed to incubate at 30° C. for 2 hours. The assay plates are sealed and maintained in a humidified environment. After the 2 hour incubation, 2 μl of ADP Quest assay reagent A, followed by 2 μl of assay reagent B, is added. After an additional 30 minute incubation at room temperature, fluorescence intensity is measured on a Molecular Devices Aquest multi-mode plate reader or other suitable plate reader (fluorescence excitation filter: 530/25 [Peak(nm)/FWHM passband(nm)]; dichroic beamsplitter: 561 nm longpass; fluorescence emission filter: 580/10 [Peak(nm)/FWHM passband(nm)]. The assay measures the conversion of a non-fluoresecent molecule to fluorescent resorufin, which correlates with kinase activity. Negative control activity is measured with DMSO lacking any test compound. The positive control is [N-(3-trifluoromethyl-4-chlorophenyl)-N′-(4-(2-methylcarbamoyl-pyridin-4-yl)oxyphenyl)urea], aka Bay 43-9006. Efficacy is measured as a percentage of positive control activity.

PDGFRβ kinase = target: T3, PDGFRβ kinase (Homo sapiens, UniProt P09619); assay: In vitro PDGFRβ kinase assay
T3 construct: purchased Invitrogen Inc. P3082
T3 sequence (P09619 33-1106): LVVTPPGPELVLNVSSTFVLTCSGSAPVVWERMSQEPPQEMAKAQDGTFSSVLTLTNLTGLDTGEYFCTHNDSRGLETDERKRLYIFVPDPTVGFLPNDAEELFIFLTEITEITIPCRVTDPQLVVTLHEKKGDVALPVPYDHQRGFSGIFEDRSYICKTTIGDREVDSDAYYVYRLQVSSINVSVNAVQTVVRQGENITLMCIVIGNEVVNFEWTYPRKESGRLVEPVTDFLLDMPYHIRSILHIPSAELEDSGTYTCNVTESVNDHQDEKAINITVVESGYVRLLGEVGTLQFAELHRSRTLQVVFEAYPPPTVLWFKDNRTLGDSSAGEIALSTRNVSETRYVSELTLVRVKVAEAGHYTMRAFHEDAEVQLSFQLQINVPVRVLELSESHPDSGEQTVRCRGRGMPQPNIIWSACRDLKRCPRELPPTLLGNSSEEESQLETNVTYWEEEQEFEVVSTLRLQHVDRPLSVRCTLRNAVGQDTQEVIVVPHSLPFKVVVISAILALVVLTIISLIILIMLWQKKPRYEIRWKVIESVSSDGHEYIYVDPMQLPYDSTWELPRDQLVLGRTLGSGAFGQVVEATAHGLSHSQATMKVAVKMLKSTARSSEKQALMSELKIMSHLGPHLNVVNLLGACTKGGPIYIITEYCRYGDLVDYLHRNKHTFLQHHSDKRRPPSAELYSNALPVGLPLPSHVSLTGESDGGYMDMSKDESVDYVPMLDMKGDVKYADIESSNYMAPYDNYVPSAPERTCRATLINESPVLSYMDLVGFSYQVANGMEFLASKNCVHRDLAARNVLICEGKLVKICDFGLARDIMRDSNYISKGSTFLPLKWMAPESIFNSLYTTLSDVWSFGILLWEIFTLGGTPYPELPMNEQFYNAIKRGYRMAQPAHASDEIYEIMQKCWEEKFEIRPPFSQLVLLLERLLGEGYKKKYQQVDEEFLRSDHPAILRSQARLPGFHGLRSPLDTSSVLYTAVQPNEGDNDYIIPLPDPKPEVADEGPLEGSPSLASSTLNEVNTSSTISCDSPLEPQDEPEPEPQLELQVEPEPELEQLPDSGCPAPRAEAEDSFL
Protocol: as §1, §2

T1 sequence (P15056 416-766): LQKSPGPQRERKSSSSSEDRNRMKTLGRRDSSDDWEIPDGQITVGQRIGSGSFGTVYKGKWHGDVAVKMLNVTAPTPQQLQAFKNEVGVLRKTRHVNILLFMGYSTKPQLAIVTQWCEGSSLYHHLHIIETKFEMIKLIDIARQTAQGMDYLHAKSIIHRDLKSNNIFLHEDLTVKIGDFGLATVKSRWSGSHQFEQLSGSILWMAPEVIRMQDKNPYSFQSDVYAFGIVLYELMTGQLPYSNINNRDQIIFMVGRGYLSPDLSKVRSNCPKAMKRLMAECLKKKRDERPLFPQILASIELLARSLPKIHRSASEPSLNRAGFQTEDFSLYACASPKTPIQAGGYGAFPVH

| IC50 [1] [µM] | IC50 (VEGFR2 kinase) [µM] | IC50 (PDGFRβ kinase) [µM] | SMILES |
| --- | --- | --- | --- |
| > 10 | > 10 | > 10 | CN(C)c1cccc(C(=O)Nc2cccc(Oc3ccnc(-c4cnn(C)c4)c3)c2)c1 [Example 28, 3-(Dimethylamino)-N-(3-(2-(1-methyl-1H-pyrazol-4-yl)pyridin-4-yloxy)phenyl)benzamide] |
| ≤ 10 | > 10 | > 10 | Cn1cc(-c2cc(Oc3cccc(NC(=O)c4cccc5c4OCO5)c3)ccn2)cn1 [Example 29, N-(3-(2-(1-Methyl-1H-pyrazol-4-yl)pyridin-4-yloxy)phenyl)benzo[d][1,3]dioxole-4-carboxamide] |
| > 10 | > 10 | > 10 | Cn1cc(-c2cc(Oc3cccc(NC(=O)c4cccc5c4OC(F)(F)O5)c3)ccn2)cn1 [Example 30, 2,2-Difluoro-N-(3-(2-(1-methyl-1H-pyrazol-4-yl)pyridin-4-yloxy)phenyl)benzo[d][1,3]dioxole-4-carboxamide] |
| > 10 | > 10 | > 10 | Cn1cc(-c2cc(Oc3cccc(NC(=O)c4cccc(-c5ccccc5)c4)c3)ccn2)cn1 [Example 31, N-(3-(2-(1-Methyl-1H-pyrazol-4-yl)pyridin-4-yloxy)phenyl)biphenyl-3-carboxamide] |
| > 10 | > 10 | > 10 | Cn1cc(-c2cc(Oc3cccc(NC(=O)c4cccc(-c5ccccn5)c4)c3)ccn2)cn1 [Example 32, N-(3-(2-(1-Methyl-1H-pyrazol-4-yl)pyridin-4-yloxy)phenyl)-3-(pyridin-2-yl)benzamide] |
| > 10 | ≤ 10 | > 10 | Cn1cc(-c2cc(Oc3cccc(NC(=O)c4cccc(-c5cccnc5)c4)c3)ccn2)cn1 [Example 33, N-(3-(2-(1-Methyl-1H-pyrazol-4-yl)pyridin-4-yloxy)phenyl)-3-(pyridin-3-yl)benzamide] |
| > 10 | > 10 | > 10 | Cn1cc(-c2cc(Oc3cccc(NC(=O)c4cccc(-c5ccncc5)c4)c3)ccn2)cn1 [Example 34, N-(3-(2-(1-Methyl-1H-pyrazol-4-yl)pyridin-4-yloxy)phenyl)-3-(pyridin-4-yl)benzamide] |
| > 10 | > 10 | > 10 | Cn1cc(-c2cc(Oc3cccc(NC(=O)c4cncc(-n5cccc5)c4)c3)ccn2)cn1 [Example 35, N-(3-(2-(1-Methyl-1H-pyrazol-4-yl)pyridin-4-yloxy)phenyl)-5-(1H-pyrrol-1-yl)nicotinamide] |
| > 10 | ≤ 10 | ≤ 10 | Cn1cc(-c2cc(Oc3cccc(NC(=O)c4ccccc4-n4ccnc4)c3)ccn2)cn1 [Example 36, 2-(1H-Imidazol-1-yl)-N-(3-(2-(1-methyl-1H-pyrazol-4-yl)pyridin-4-yloxy)phenyl) benzamide] |
| > 10 | > 10 | > 10 | Cn1cc(-c2cc(Oc3cccc(NC(=O)c4cccc(-n5ccnc5)c4)c3)ccn2)cn1 [Example 37, 3-(1H-Imidazol-1-yl)-N-(3-(2-(1-methyl-1H-pyrazol-4-yl)pyridin-4-yloxy)phenyl) benzamide] |
| ≤ 10 | ≤ 10 | > 10 | Cn1cc(-c2cc(Oc3cccc(NC(=O)c4cccc(-n5cnnc5)c4)c3)ccn2)cn1 [Example 38, N-(3-(2-(1-Methyl-1H-pyrazol-4-yl)pyridin-4-yloxy)phenyl)-3-(4H-1,2,4-triazol-4-yl)benzamide] |
| ≤ 10 | > 10 | > 10 | Cn1cc(-c2cc(Oc3cccc(NC(=O)c4ccccc4OC(F)(F)F)c3)ccn2)cn1 [Example 39, N-(3-(2-(1-Methyl-1H-pyrazol-4-yl)pyridin-4-yloxy)phenyl)-2-(trifluoromethoxy)benzamide] |
| > 10 | > 10 | > 10 | Cn1cc(-c2cc(Oc3cccc(NC(=O)c4cccc(OC(F)(F)F)c4)c3)ccn2)cn1 [Example 40, N-(3-(2-(1-Methyl-1H-pyrazol-4-yl)pyridin-4-yloxy)phenyl)-3-(trifluoromethoxy)benzamide] |
| > 10 | > 10 | > 10 | Cn1cc(-c2cc(Oc3cccc(NC(=O)c4cc(OC(F)(F)F)cc(OC(F)(F)F)c4)c3)ccn2)cn1 [Example 41, N-(3-(2-(1-methyl-1H-pyrazol-4-yl)pyridin-4-yloxy)phenyl)-3,5-bis(trifluoromethoxy)benzamide] |
| ≤ 10 | ≤ 10 | > 10 | Cn1cc(-c2cc(Oc3cccc(NC(=O)c4ccc(OC(F)(F)F)cc4OC(F)(F)F)c3)ccn2)cn1 [Example 42, N-(3-(2-(1-Methyl-1H-pyrazol-4-yl)pyridin-4-yloxy)phenyl)-2,4-bis(trifluoromethoxy)benzamide] |
| ≤ 10 | ≤ 10 | ≤ 10 | Cn1cc(-c2cc(Oc3cccc(NC(=O)c4ccccc4C(F)(F)F)c3)ccn2)cn1 [Example 43, N-(3-(2-(1-Methyl-1H-pyrazol-4-yl)pyridin-4-yloxy)phenyl)-2-(trifluoromethyl)benzamide] |
| > 10 | > 10 | > 10 | Cn1cc(-c2cc(Oc3cccc(NC(=O)c4cccc(C(F)(F)F)c4)c3)ccn2)cn1 [Example 44, N-(3-(2-(1-Methyl-1H-pyrazol-4-yl)pyridin-4-yloxy)phenyl)-3-(trifluoromethyl)benzamide] |
| ≤ 10 | > 10 | > 10 | Cn1cc(-c2cc(Oc3cccc(NC(=O)c4ccc(C(F)(F)F)cc4)c3)ccn2)cn1 [Example 45, N-(3-(2-(1-Methyl-1H-pyrazol-4-yl)pyridin-4-yloxy)phenyl)-4-(trifluoromethyl)benzamide] |
| ≤ 10 | > 10 | > 10 | Cn1cc(-c2cc(Oc3cccc(NC(=O)c4cccc(C#N)c4)c3)ccn2)cn1 [Example 46, 3-Cyano-N-(3-(2-(1-methyl-1H-pyrazol-4-yl)pyridin-4-yloxy)phenyl)benzamide] |
| ≤ 10 | > 10 | > 10 | Cn1cc(-c2cc(Oc3cccc(NC(=O)c4ccc(C#N)cc4)c3)ccn2)cn1 [Example 47, 4-Cyano-N-(3-(2-(1-methyl-1H-pyrazol-4-yl)pyridin-4-yloxy)phenyl)benzamide] |
| > 10 | ≤ 10 | ≤ 10 | Cn1cc(-c2cc(Oc3cccc(NC(=O)c4ccccc4C(=O)c4ccccc4)c3)ccn2)cn1 [Example 49, 2-Benzoyl-N-(3-(2-(1-methyl-1H-pyrazol-4-yl)pyridin-4-yloxy)phenyl)benzamide] |
| > 10 | ≤ 10 | > 10 | Cn1cc(-c2cc(Oc3cccc(NC(=O)c4cccc(C(=O)c5ccccc5)c4)c3)ccn2)cn1 [Example 50, 3-Benzoyl-N-(3-(2-(1-methyl-1H-pyrazol-4-yl)pyridin-4-yloxy)phenyl)benzamide] |
| ≤ 10 | ≤ 10 | > 10 | Cn1cc(-c2cc(Oc3cccc(NC(=O)c4ccc(C(=O)c5ccccc5)cc4)c3)ccn2)cn1 [Example 51, 4-Benzoyl-N-(3-(2-(1-methyl-1H-pyrazol-4-yl)pyridin-4-yloxy)phenyl)benzamide] |
| > 10 | > 10 | > 10 | Cn1cc(-c2cc(Oc3cccc(NC(=O)c4cccc5ccccc45)c3)ccn2)cn1 [Example 52, N-(3-(2-(1-Methyl-1H-pyrazol-4-yl)pyridin-4-yloxy)phenyl)-1-naphthamide] |
| > 10 | > 10 | > 10 | Cn1cc(-c2cc(Oc3cccc(NC(=O)c4ccc5ccccc5c4)c3)ccn2)cn1 [Example 53, N-(3-(2-(1-Methyl-1H-pyrazol-4-yl)pyridin-4-yloxy)phenyl)-2-naphthamide] |
